Data from patent publication US9943560B2, “Medical compositions containing liquorice extracts with synergistic effect” (priority 2010, dated 2018).
≈ marks a conversion by molar mass, not a printed value. Where “and” joins values, the source holds several entries; their conditions need not be identical. Equal values may be shown once.

Columns and labels:
Colon38 cells = assay: In vitro killing of Colon38 cells (MTS, 72 h); format: cell-based, murine; conditions: Colon38, 72 h
Description: 1. Experimental Sources of In Vitro Killing Colon38 Cells
Colon38 cells i.e. murine colon carcinoma cells, which was gifted from Dept. of Pharmacology, Yale Medical School and are a kind of adherent cells.
(§1) 90% 1640 culture solution plus 10% newborn calf serum (NCS), 100 ml in total, and then add lml miscible liquids containing 1% penicillin and 1% streptomycin.
Cultivate it in an incubator of 37° C. with 5% CO2. The cells will passage every 3 days, and carry out the experiment when the cells enter their logarithmic growth period after two or three times of passage.
2. Experiment on In Vitro Killing of SGC-7901 Cell Source: […]

SGC-7901 cells = assay: In vitro killing of SGC-7901 cells (MTS, 72 h); format: cell-based, human; conditions: SGC-7901, 72 h
Description: SGC-7901 cells i.e. human gastric cancer cells which are bought from Cell Bank of Chinese Academy of Sciences/Shanghai Institute of Life Sciences Cell Resource Center of Chinese Academy of Sciences are adherent cells.
as §1
Cultivate it in an incubator of 37° C. with CO2 of 5 percent. The cells will passage once every 3 days, and carry out the experiment when the cells enter their logarithmic growth period after two or three times of passage.
3. Experiment on In Vitro Killing of MCF-7 Cell Source

PC-3 cells = assay: In vitro killing of PC-3 cells (MTS, 72 h); format: cell-based; conditions: PC-3, 72 h
Source text: 4. Experiment on In Vitro Killing of PC-3 Cell
PC-3 cells i.e. prostate cancer cells, which are bought from American ATCC, is a kind of adherent cells.
Its medium, culture conditions and experimental procedures are all the same with that of the above method 1.

[1] = system: colon cancer cell strain colon38 transplanted tumor; assay: Anti-tumor effect on colon38 transplanted tumor in mice; format: in vivo; conditions: for Death number: dead animals of 10 per group, represents side effects; for Death number / Average weight of tumor / Tumor inhibiting rate: dose as in Table VI; for Average weight of tumor: mice, once a week, four times; for Average weight of tumor / Tumor inhibiting rate: after four weeks; for Tumor inhibiting rate: vs CK group
Source text: Based on the method described in Pharmacology Research Methodology of Chinese Medicine (Chinese TCM Publishing House), test the anti-tumor effects of Chalcone A, G007, AG007-16 etc prepared in Embodiment 1, chemotherapy drugs (5-fluorouracil) and HBD09 on animal model of human cancer heterogeneity transplanted tumor. 5-fluorouracil (short for fu) is a broad-spectrum anti-tumor drug and mainly used to cure digestive tract tumor; the common adverse reactions are sicchasia, anorexia or vomiting, abdominal discomfort or diarrhea.
The dose given is as shown in Table VI; intragastric administration/ or injection administration is given once a week and four times in total.

MCF-7 cells = assay: In vitro killing of MCF-7 cells (MTS, 72 h); format: cell-based, human; conditions: MCF-7, 72 h
Description: MCF-7 cells i.e. human breast cancer cells, which are bought from American ATCC, is a kind of adherent cells.
90% 1640 medium+10% fetal calf serum+30mmol/L Hepes+6 μg/ml insulin.
Its culture conditions and experimental procedures are all the same with that of the above method 1.

Colon 38 = assay: Drug combination on inhibiting tumor cells, Combination Index (Chou-Talalay), Colon 38; format: cell-based, murine; conditions: partner drugs as named in the sentence (G007, I3C, DIM, Cis-platinum)
Source text: According to the cells and experiment methods used in Embodiment 2, differences are incurred from that dose concentration is confirmed by the following methods: when two drugs are combined, the concentration of one drug is chosen to be approximate to but smaller than IC50 while the concentration of other drugs is chosen to be in gradient dilution, to perform a series of experiments. When it is experimented that 50% tumor cells are inhibited, then the concentration of all drugs used at that moment is recorded as their IC50 value, and the CI value of the two drugs can be calculated with the formula in the above document.

[2] = system: postprandial blood glucose of Type 2 diabetics; assay: Clinical observation: postprandial blood glucose control in high-blood-glucose patients; format: in vivo, human
Source text: The postprandial blood glucose of Type 2 diabetics not sensitive to insulin is an important index of abnormal glucose metabolism and can be used to test the effect of drugs in reducing blood glucose.

**Q.** For c1ccc2c(Cc3c[nH]c4ccccc34)c[nH]c2c1 [HBD09, bis-indolymethane], which IC50 (Colon38 cells) is on record?
**A.** Its IC50 is 18.59 µg/mL (≈ 75.5 µM).

**Q.** And the IC80 (Colon38 cells)?
**A.** The IC80 was 48.51 µg/mL (≈ 197 µM).

**Q.** And the IC50 (SGC-7901 cells)?
**A.** Its IC50 is 18.2 µg/mL (≈ 73.9 µM).

**Q.** What about the IC80 (SGC-7901 cells) of the same compound?
**A.** The IC80 was 51.24 µg/mL (≈ 208 µM).

**Q.** And the IC50 (PC-3 cells)?
**A.** The IC50 was 13.8 µg/mL (≈ 56 µM).

**Q.** And the IC80 (PC-3 cells)?
**A.** The IC80 was 23.9 µg/mL (≈ 97 µM).

**Q.** And the Death number [1]?
**A.** Its Death number is 2.

**Q.** And the “Average weight of tumor” value [1]?
**A.** Its value is 2.6 ± 0.15 g.

**Q.** And the Tumor inhibiting rate [1]?
**A.** The Tumor inhibiting rate was 15%.

**Q.** What about the IC50 (MCF-7 cells) of the same compound?
**A.** Its IC50 is 15.6 µg/mL (≈ 63.3 µM).

**Q.** And the IC80 (MCF-7 cells)?
**A.** The IC80 was 31.2 µg/mL (≈ 127 µM).

**Q.** O=c1[nH]cc(F)c(=O)[nH]1 [CK1(fu), 5-fluorouracil] was tested. Which Death number [1] did it give?
**A.** The Death number was 6.

**Q.** What about the “Average weight of tumor” value [1] of the same compound?
**A.** Its value is 1.74 ± 0.11 g.

**Q.** What about the Tumor inhibiting rate [1] of the same compound?
**A.** Its Tumor inhibiting rate is 43%.

**Q.** C=CC(C)(C)c1cc(/C=C/C(=O)c2ccc(O)cc2)c(OC)cc1O [Chalcone A] was tested. Which IC50 (Colon38 cells) did it give?
**A.** Its IC50 is 9.1 µg/mL (≈ 26.9 µM).

**Q.** And the IC80 (Colon38 cells)?
**A.** Its IC80 is 24.77 µg/mL (≈ 73.2 µM).

**Q.** What about the IC50 (SGC-7901 cells) of the same compound?
**A.** The IC50 was 9.7 µg/mL (≈ 28.7 µM).

**Q.** What about the IC80 (SGC-7901 cells) of the same compound?
**A.** Its IC80 is 29.70 µg/mL (≈ 87.8 µM).

**Q.** And the “synergistic effects in combination” value (Colon 38)?
**A.** Its value is “synergistic effects”.

**Q.** And the IC50 (PC-3 cells)?
**A.** Its IC50 is 7.8 µg/mL (≈ 23 µM).

**Q.** What about the IC80 (PC-3 cells) of the same compound?
**A.** The IC80 was 13.3 µg/mL (≈ 39.3 µM).

**Q.** What about the “anti-tumor effect and side effects in the animal model” value ([1]; alone or in combination with 5-fluorouracil) of the same compound?
**A.** Its value is “reduce the side effects brought by 5-fluorouracil dose”.

**Q.** And the Death number [1]?
**A.** The Death number was 0.

**Q.** What about the “Average weight of tumor” value [1] of the same compound?
**A.** Its value is 2.36 ± 0.13 g.

**Q.** What about the Tumor inhibiting rate [1] of the same compound?
**A.** The Tumor inhibiting rate was 23%.

**Q.** What about the “ratio of glucose reduction” value ([2]; average after-meal glucose with vs without drug intake) of the same compound?
**A.** Its value is 13.6%.

**Q.** What about the “Average blood glucose, drug intake, after meal” value ([2]; average of three patients, two hours after meal) of the same compound?
**A.** Its value is 11.4 mM/L.

**Q.** What about the “effect on controlling postprandial blood glucose” value ([2]; high-blood-glucose patients, compared with soybean) of the same compound?
**A.** The value was “significant effects”.

**Q.** And the “Blood glucose, drug intake, before meal” value ([2]; individual patient, oral dose before meal)?
**A.** Its value is 7.9 mM/L and 8.6 mM/L and 8.5 mM/L.

**Q.** What about the “Blood glucose, drug intake, after meal” value ([2]; individual patient, two hours after 300 g boiled corn, oral dose before meal) of the same compound?
**A.** The value was 10.6 mM/L and 12.0 mM/L and 11.6 mM/L.

**Q.** And the IC50 (MCF-7 cells)?
**A.** The IC50 was 9.1 µg/mL (≈ 26.9 µM).

**Q.** And the IC80 (MCF-7 cells)?
**A.** The IC80 was 21.3 µg/mL (≈ 62.9 µM).

**Q.** For N.N.[Cl][Pt][Cl] [Cis-platinum], which IC50 (Colon38 cells) is on record?
**A.** The IC50 was 3.92 µg/mL.

**Q.** What about the IC50 (SGC-7901 cells) of the same compound?
**A.** The IC50 was 5.4 µg/mL.

**Q.** What about the IC50 (MCF-7 cells) of the same compound?
**A.** Its IC50 is 3.92 µg/mL.
